ChEMBL document CHEMBL1134446, “Polyamine analogue antidiarrheals: a structure-activity study” (J Med Chem, 2001)
“And” between values parts separate entries of the source, which are not always exact repeats. Identical values can stand only once.

Tests used:
Canis familiaris [1] = assay: Spermine Distribution in kidney was determined after DESPM dosing of 6.0 mg/kg/day for 4.5 days in dog(cu dose-52.4) and sacrificed at 10 days PLD(cu dose-27 mg/kg); assay type: ADME, organism-based, Canis lupus familiaris; settings: in vivo, 240 h
Canis familiaris [2] = assay: Spermine Distribution in kidney was determined after DESPM dosing of 6.0 mg/kg/day for 4.5 days in dog(cu dose-52.4) and sacrificed at 75 days PLD(cu dose-27 mg/kg); assay type: ADME, organism-based, Canis lupus familiaris; settings: in vivo, 1800 h
Canis familiaris [3] = assay: putrescine Distribution in liver was determined after DESPM dosing of 1.87 mg/kg/day for 28 days in dog(cu dose-52.4) and sacrificed at 10 days PLD(cu dose-52.4 mg/kg); assay type: ADME, organism-based, Canis lupus familiaris; settings: in vivo, 240 h
Canis familiaris [4] = assay: Spermidine Distribution in liver was determined after DESPM dosing of 1.87 mg/kg/day for 28 days in dog(cu dose-52.4) and sacrificed at 10 days PLD(cu dose-52.4 mg/kg); assay type: ADME, organism-based, Canis lupus familiaris; settings: in vivo, 240 h
Canis familiaris [5] = assay: putrescine Distribution in liver was determined after DESPM dosing of 1.87 mg/kg/day for 28 days in dog(cu dose-52.4) and sacrificed at 75 days PLD(cu dose-52.4 mg/kg); assay type: ADME, organism-based, Canis lupus familiaris; settings: in vivo, 1800 h
Canis familiaris [6] = assay: putrescine Distribution in liver was determined after DESPM dosing of 4 mg/kg/day for 13 days in dog(cu dose-52.4) and sacrificed at 10 days PLD(cu dose-52 mg/kg); assay type: ADME, organism-based, Canis lupus familiaris; settings: in vivo, 240 h
Canis familiaris [7] = assay: putrescine Distribution in liver was determined after DESPM dosing of 4 mg/kg/day for 13 days in dog(cu dose-52.4) and sacrificed at 75 days PLD(cu dose-52 mg/kg); assay type: ADME, organism-based, Canis lupus familiaris; settings: in vivo, 1800 h
Canis familiaris [8] = assay: putrescine Distribution in liver was determined after DESPM dosing of 6.0 mg/kg/day for 4.5 days in dog(cu dose-52.4) and sacrificed at 10 days PLD(cu dose-27 mg/kg); assay type: ADME, organism-based, Canis lupus familiaris; settings: in vivo, 240 h
Canis familiaris [9] = assay: putrescine Distribution in liver was determined after DESPM dosing of 8.0 mg/kg/day for 4.5 days in dog(cu dose-52.4) and sacrificed at 75 days PLD(cu dose-36 mg/kg); assay type: ADME, organism-based, Canis lupus familiaris; settings: in vivo, 1800 h
Canis familiaris [10] = assay: Spermidine Distribution in kidney was determined after DESPM dosing of 4 mg/kg/day for 13 days in dog(cu dose-52.4) and sacrificed at 10 days PLD(cu dose-52 mg/kg); assay type: ADME, organism-based, Canis lupus familiaris; settings: in vivo, 240 h
Canis familiaris [11] = assay: Spermine Distribution in liver was determined after DESPM dosing of 6.0 mg/kg/day for 4.5 days in dog(cu dose-52.4) and sacrificed at 75 days PLD(cu dose-27 mg/kg); assay type: ADME, organism-based, Canis lupus familiaris; settings: in vivo, 1800 h
Canis familiaris [12] = assay: MESPM/MEHSPH Distribution in liver was determined after DESPM dosing of 6.0 mg/kg/day for 4.5 days in dog(cu dose-52.4) and sacrificed at 75 days PLD(cu dose-27 mg/kg); assay type: ADME, organism-based, Canis lupus familiaris; settings: in vivo, 1800 h
Canis familiaris [13] = assay: MESPM/MEHSPH Distribution in liver was determined after DESPM dosing of 8.0 mg/kg/day for 4.5 days in dog(cu dose-52.4) and sacrificed at 75 days PLD(cu dose-36 mg/kg); assay type: ADME, organism-based, Canis lupus familiaris; settings: in vivo, 1800 h
Canis familiaris [14] = assay: MESPM/MEHSPH Distribution in liver was determined after DESPM dosing of 4 mg/kg/day for 13 days in dog(cu dose-52.4) and sacrificed at 75 days PLD(cu dose-52 mg/kg); assay type: ADME, organism-based, Canis lupus familiaris; settings: in vivo, 1800 h
Canis familiaris [15] = assay: MESPM/MEHSPH Distribution in liver was determined after DESPM dosing of 6.0 mg/kg/day for 4.5 days in dog(cu dose-52.4) and sacrificed at 10 days PLD(cu dose-27 mg/kg); assay type: ADME, organism-based, Canis lupus familiaris; settings: in vivo, 240 h
Rattus norvegicus [16] = assay: Weight loss of rat over the 6-h experimental period when a dose of 0 mg/kg (0 administered; assay type: functional
Rattus norvegicus [17] = assay: Percent reduction was determined by using the ratio of mean of treated animal to that of control animal at a dose of 23.5 mg/kg; assay type: functional
Rattus norvegicus [18] = assay: Stool output of rat over the 6-h collection period when a dose of 14.3 mg/kg (35.4 administered; assay type: functional
Canis familiaris [19] = assay: putrescine Distribution in liver was determined after DEHSPM dosing of 2.0 mg/kg/day for 29 days in dog(cu dose-52.4) and sacrificed at 10 days PLD(cu dose-58 mg/kg); assay type: ADME, organism-based, Canis lupus familiaris; settings: in vivo, 240 h
Canis familiaris [20] = assay: putrescine Distribution in kidney was determined after DEHSPM dosing of 2.0 mg/kg/day for 29 days in dog(cu dose-52.4) and sacrificed at 10 days PLD(cu dose-22 mg/kg); assay type: ADME, organism-based, Canis lupus familiaris; settings: in vivo, 240 h
Canis familiaris [21] = assay: Spermine Distribution in kidney was determined after DEHSPM dosing of 2.0 mg/kg/day for 29 days in dog(cu dose-52.4) and sacrificed at 10 days PLD(cu dose-22 mg/kg); assay type: ADME, organism-based, Canis lupus familiaris; settings: in vivo, 240 h
Canis familiaris [22] = assay: Distribution in liver was determined after DEHSPM dosing of 2.0 mg/kg/day for 29 days in dog(cu dose-52.4) and sacrificed at 10 days PLD(cu dose-22 mg/kg); assay type: ADME, organism-based, Canis lupus familiaris; settings: in vivo, 240 h
Canis familiaris [23] = assay: Distribution in liver was determined after DESPM dosing of 1.87 mg/kg/day for 28 days in dog(cu dose-52.4) and sacrificed at 75 days PLD(cu dose-52.4 mg/kg); assay type: ADME, organism-based, Canis lupus familiaris; settings: in vivo, 1800 h
Canis familiaris [24] = assay: Distribution in liver was determined after DESPM dosing of 4 mg/kg/day for 13 days in dog(cu dose-52.4) and sacrificed at 75 days PLD(cu dose-52 mg/kg); assay type: ADME, organism-based, Canis lupus familiaris; settings: in vivo, 1800 h
Canis familiaris [25] = assay: Distribution in liver was determined after DESPM dosing of 8.0 mg/kg/day for 4.5 days in dog(cu dose-52.4) and sacrificed at 10 days PLD(cu dose-36 mg/kg); assay type: ADME, organism-based, Canis lupus familiaris; settings: in vivo, 240 h
Canis familiaris [26] = assay: HSPM Distribution in kidney was determined after DEHSPM dosing of 2.0 mg/kg/day for 29 days in dog(cu dose-52.4) and sacrificed at 10 days PLD(cu dose-58 mg/kg); assay type: ADME, organism-based, Canis lupus familiaris; settings: in vivo, 240 h
Canis familiaris [27] = assay: MESPM/MEHSPH Distribution in kidney was determined after DEHSPM dosing of 2.0 mg/kg/day for 29 days in dog(cu dose-52.4) and sacrificed at 10 days PLD(cu dose-58 mg/kg); assay type: ADME, organism-based, Canis lupus familiaris; settings: in vivo, 240 h
Canis familiaris [28] = assay: Distribution in kidney was determined after DEHSPM dosing of 2.0 mg/kg/day for 29 days in dog(cu dose-52.4) and sacrificed at 10 days PLD(cu dose-22 mg/kg); assay type: ADME, organism-based, Canis lupus familiaris; settings: in vivo, 240 h
Canis familiaris [29] = assay: MESPM/MEHSPH Distribution in liver was determined after DEHSPM dosing of 2.0 mg/kg/day for 29 days in dog(cu dose-52.4) and sacrificed at 10 days PLD(cu dose-22 mg/kg); assay type: ADME, organism-based, Canis lupus familiaris; settings: in vivo, 240 h
Canis familiaris [30] = assay: Distribution in kidney was determined after DESPM dosing of 4 mg/kg/day for 13 days in dog(cu dose-52.4) and sacrificed at 10 days PLD(cu dose-52 mg/kg); assay type: ADME, organism-based, Canis lupus familiaris; settings: in vivo, 240 h
Canis familiaris [31] = assay: Distribution in kidney was determined after DESPM dosing of 6.0 mg/kg/day for 4.5 days in dog(cu dose-52.4) and sacrificed at 75 days PLD(cu dose-27 mg/kg); assay type: ADME, organism-based, Canis lupus familiaris; settings: in vivo, 1800 h
Canis familiaris [32] = assay: Spermine Distribution in liver was determined after DEHSPM dosing of 2.0 mg/kg/day for 29 days in dog(cu dose-52.4) and sacrificed at 10 days PLD(cu dose-58 mg/kg); assay type: ADME, organism-based, Canis lupus familiaris; settings: in vivo, 240 h

CCNCCCNCCCCNCCCNCC [BIS(ETHYL)SPERMINE]
Wet weight of tissue (Canis familiaris [1]): 654 nM/g
Wet weight of tissue (Canis familiaris [2]): 584 nM/g
Wet weight of tissue (Canis familiaris [3]): 86 nM/g
Wet weight of tissue (Canis familiaris [4]): 179 nM/g
Wet weight of tissue (Canis familiaris [5]): 28 nM/g
Wet weight of tissue (Canis familiaris [6]): 82 nM/g
Wet weight of tissue (Canis familiaris [7]): 62 nM/g
Wet weight of tissue (Canis familiaris [8]): 87 nM/g
Wet weight of tissue (Canis familiaris [9]): 56 nM/g
Wet weight of tissue (Canis familiaris [10]): 82 nM/g
Wet weight of tissue (Canis familiaris [11]): 992 nM/g
Wet weight of tissue (Canis familiaris [12]): 1 nM/g
Wet weight of tissue (Canis familiaris [13]): 0 nM/g
Wet weight of tissue (Canis familiaris [14]): 0 nM/g
Wet weight of tissue (Canis familiaris [15]): 23 nM/g
Weight loss (Rattus norvegicus [16]): 11.9 g
Reduction (Rattus norvegicus [17]): 59% and 74%
Stool output (Rattus norvegicus [18]): <0.6 g (350g of rat weight)-1

CCNCCCCNCCCCNCCCCNCC [DIETHYLHOMOSPERMINE]
Wet weight of tissue (Canis familiaris [19]): 19 nM/g
Wet weight of tissue (Canis familiaris [20]): 0 nM/g
Wet weight of tissue (Canis familiaris [21]): 611 nM/g
Wet weight of tissue (Canis familiaris [22]): 0 nM/g
Wet weight of tissue (Canis familiaris [23]): 0 nM/g
Wet weight of tissue (Canis familiaris [24]): 0 nM/g
Wet weight of tissue (Canis familiaris [25]): 29 nM/g
Wet weight of tissue (Canis familiaris [26]): 269 nM/g
Wet weight of tissue (Canis familiaris [27]): 78 nM/g
Wet weight of tissue (Canis familiaris [28]): 0 nM/g
Wet weight of tissue (Canis familiaris [29]): 13 nM/g
Wet weight of tissue (Canis familiaris [30]): 46 nM/g
Wet weight of tissue (Canis familiaris [31]): 0 nM/g
Wet weight of tissue (Canis familiaris [32]): 108 nM/g
